# Test results: patent US9176114B2, “Cell culture model for acquired chemoresistance of chronic myelogenous leukemia and related methods for identifying agents to overcome resistance” (CITY OF HOPE, priority 2007, dated 2015)
# Counter-ions that a name gives are not always drawn.
# Tests used:
# KCL-22 cells [1] = assay: Resistance assay: relapse of KCL-22 cells in prolonged liquid culture (CML acquired resistance model); assay type: cell-based, human; conditions: for relapse of KCL-22 cells on imatinib (STI-571) in combination with the inhibitor: prolonged culture
# Description: Cells were maintained in these cultures without changing medium.
# Cells were maintained in these cultures without changing medium. Aliquots of cells were taken out at specified time points and cell numbers counted using a hematocytometer. Cell viability was accessed by trypan blue exclusion where necessary.
# K562 cells = assay: Growth factor-induced transient resistance (serum-free medium, basic supplements, insulin); assay type: cell-based, human; conditions: 1 μM STI-571, two days pre-incubation in SF medium with basic supplements
# Procedure: (A) Growth curves of K562 cells in serum medium, and serum-free medium supplied with basic supplements containing 5 μg/ml insulin and 5 μg/ml transferrin (basic) with or without 75 ng/ml EGF, 25 μg/ml HDL or both (EH). […] Relative survival of imatinib treated cells was calculated by comparison to no drug treatment. Pre-incubation for two days renders resistance. […] Since sirtinol is insoluble in SF medium, HDL 25 μg/ml was added to help dissolve the drug. (D) Effects of basic supplements in serum medium. […] Viable cells were counted one and three days after the treatment. […] (F) Effects of insulin in resistance.
# Whether serum-free medium supplied with select growth factors provides a better culture environment for developing CML chemoresistance was determined. Serum-free (SF) medium with insulin, transferring, epidermal growth factor (EGF) and high density lipoprotein (HDL) was used. SF medium with the basic supplements (5 μg/ml insulin and 5 μg/ml transferring) was sufficient to support growth of both K562 cells (FIG. 13A) and KCL-22 cells. […] Sirtinol is able to overcome CML resistance in SF culture.
# Transient resistance conferred by insulin and transferrin supplement is of interest as insulin receptor is overexpressed in about 90% primary CML cells. The key insulin downstream target phosphatidylinositol-3 kinase (PI3K) is required for BCR-ABL mediated transformation and inhibition of PI3K-Akt-mTor pathway has been explored to overcome CML chemoresistance. SIRT1 is a key gene for regulating insulin secretion and directly regulates Akt downstream target FOXO proteins through deacetylation. Therefore, the effect of insulin itself for transient resistance to imatinib and the response of sirtinol treatment were examined.
# SIRT1 = SIRT1 protein expression by Western blot; assay type: cell-based, human
# Procedure: (§1) SIRT1 expression was analyzed by Western blot using 1:5000 diluted rabbit monoclonal SIRT1 antibody (Epitomics). Controls used were GAPDH or actin as loading controls with rabbit anti-GAPDH (Trevigen) or anti-actin (Sigma) at 1:5000 dilution. GAPDH [>ref|NT—009759.15|Hs12—9916:6497433-6502281 Homo sapiens chromosome 12 genomic contig, reference assembly] primers used are as follows: […]
# RNA was extracted with Trizol (Invitrogen), synthesized the first strand DNA with Superscript III kit (Invitrogen), and analyzed gene expression using SYBR GreenER qPCR SuperMix kit (Invitrogen). For Western blots, rabbit monoclonal anti-human SIRT1 (Epitomics), rabbit anti-mouse SIRT1 (Upstate Biotech), mouse monoclonal anti-c-ABL (BD Pharmingen), mouse monoclonal anti-Ku70 (Neomarker), rabbit polyclonal anti-acetylated p53 (Cell Signaling) and rabbit polyclonal anti-acetylated FOXO1 (Santa Cruz Biotech) were used. To analyze Ku70 acetylation, Ku70 was pulled down from total cell lysate with anti-Ku70 and protein A-agarose beads (Upstate Biotech) followed by acetylation detection with rabbit anti-acetyl lysine antibody (Cell Signaling).
# SIRT1 promoter = SIRT1 promoter assay (luciferase reporter); assay type: cell-based, human; conditions: KCL-22 and K562 cells
# Procedure: FeOfection reagent (GENOVIS) was used to transfect 0.18 μg reporter and 0.02 μg pmaxGFP each well per the manufacturer's instruction. Six hours after transfection, cells were treated with imatinib and harvested after another 30 hs. Luciferase activity was measured using Dual-Luciferase Assay System (Promega), and normalized to GFP reading in each lysate.
# CML mice [2] = conditions: P210 BCR-ABL BALB/c model; cited from earlier work
# KU-812 xenograft = conditions: relapse after 48 to 60 days; cited from earlier work
# KCL-22 cells [3] = assay: Analysis of reactive oxygen species (ROS) and DNA damage (γH2AX); assay type: cell-based, human; conditions: 24 h, in the presence or absence of imatinib
# Procedure: ROS was analyzed using redox-sensitive fluorochrome 2′.7′-dichlorofluorescein diacetate (Sigma) as described previously (Koptyra et al. 2006). When coupled with the apoptosis analysis, cells were labeled with annexin V first and then 2′.7′-dichlorofluorescein diacetate.
# Cells were pre-selected for four days in HAT medium to remove pre-existing HPRT mutations. The efficiency of HAT selection was confirmed by plating these cells on soft agar with 2.5 μg/ml 6-thioguanine, which produced zero colony. HAT-selected cells were then treated with 0.5 μM CPT for 1 hour, and then cultured for 10 days before used for soft agar clonogenic assay with 6-thioguanine selection. The rest of HAT-selected cells were cultured in medium without selection. The change of γH2AX was analyzed with γH2AX Assay Kit (Upstate Biotech).
# HIC1 = HIC1 expression / SIRT1 level after HDAC and DNMT inhibitors; assay type: cell-based, human; conditions: KCL-22 cells, alone or in combination
# Description: Total cellular RNA with Trizol (Invitrogen) using a standard protocol. First strand DNA was synthesized and HIC1 expression by quantitative real-time RT-PCR using a kit with SYBR Green label (Invitrogen) as per the manufacture's instruction on a BioRad machine OPTICON. The following are the HIC1 primers (spanning introns), 5′-[…]-3′(exon 1a) and 5′-[…]-3′ (Exon 2). [>ref|NT—010718.15|Hs17—10875:1561637-1565694 Homo sapiens chromosome 17 genomic contig, reference assembly]
# as §1
# KCL-22M cells = conditions: 1 μM inhibitor
# Procedure: Cell cycle was analyzed by fixing cells with 70% ethanol at −20° C. overnight. After washing, cells were resuspended in phosphate-buffered saline containing 1 mg/ml RNase A, incubated for 30 min at 37° C., and then stained with propidine iodine (50 μg/ml) for 30 min at room temperature before flow cytometry analysis. Cell proliferation was analyzed using a XTT Cell Proliferation kit (Roche Applied Science), and apoptosis was analyzed with annexin V kit (BD Pharmingen) as per the manufacturer's instruction.
# [4] = tested on: SIRT1 and other sirtuin deacetylases; conditions: cited from earlier work
# [5] = Physiological indexes of normal BALB/c mice after 10 day treatment; assay type: in vivo; conditions: tenovin-6 alone or in combination with imatinib
# CML CD34+ cells = assay: Apoptosis and p53 acetylation in primary CML CD34+ cells; assay type: cell-based, human
# Description: FIG. 32 illustrates that SIRT1 inhibition enhances apoptosis of human CML progenitor cells. (A) Inhibition of SIRT1 protein expression in CML and cord blood (CB) CD34+ cells by lentivirus-mediated expression of SIRT1 shRNA. […] (C) SIRT1 inhibition in CML CD34+ cells results in increased P53 acetylation. […] (F) SIRT1 expression in CB and AML CD34+ cells.
# AML CD34+ cells = assay: Apoptosis of AML CD34+ cells; assay type: cell-based, human
# Solubility = assay type: physicochemical
# CML mice [6] = assay: Mouse bone marrow transduction/transplantation model of CML-like disease, drug treatment
# [7] = 1 μM TSA with all dosages of STI-571
smiles,measurement,setting,value
"Cc1ccc(NC(=O)c2ccc(CN3CCN(C)CC3)cc2)cc1Nc1nccc(-c2cccnc2)n1 [STI-571, Imatinib mesylate]",sensitivity of KCL-22 cells to treatment,KCL-22 cells [1]; 1 μM STI-571,insensitive
same,sensitivity of K562 cells to STI-571 in SF medium,K562 cells,as refractory as KCL-22 cells
same,SIRT1 expression,SIRT1; KCL-22M cells,did not change SIRT1 expression
same,SIRT1 protein levels,"SIRT1; KCL-22 and K562 cells, imatinib 48 hours",decreased in a drug concentration-dependent manner
same,SIRT1 promoter activity,SIRT1 promoter,significantly inhibited SIRT1 promoter activity
same,mice with prolonged survival on STI-571,CML mice [2],80%
same,fraction of mice relapsing on STI-571,KU-812 xenograft,one third
"CC(/C=C/C(=O)NO)=C\[C@@H](C)C(=O)c1ccc(N(C)C)cc1 [TSA, trichostatin A]",cell killing in combination with STI-571,KCL-22 cells [1]; [7],massive apoptosis and dramatic cell killing
same,relapse on TSA plus STI-571,KCL-22 cells [1]; [7],"After ten days, cells on all dosages of STI-571 relapsed"
same,"toxicity on KCL-22 cells, inhibitor alone",KCL-22 cells [1]; TSA at 1 μM alone,little toxicity
same,relapse of KCL-22 cells on imatinib (STI-571) in combination with the inhibitor,KCL-22 cells [1],fails to block relapse
same,γH2AX expression,KCL-22 cells [3],elicited robust γH2AX induction
same,reactivation of HIC1 expression / reduction of SIRT1 level,HIC1,could not reactivate HIC1 expression or reduce SIRT1 level
same,growth of KCL-22M cells,KCL-22M cells,no effect on cell growth
same,sensitivity of SIRT1 to the inhibitor,[4],insensitive
CN(C)CCCCC(=O)Nc1ccc(NC(=S)NC(=O)c2ccc(C(C)(C)C)cc2)cc1 [tenovin-6],lowest dose that blocked relapse on imatinib,KCL-22 cells [1],1 µM
same,recurrence on nilotinib or dasatinib in combination with SIRT1 inhibitor,KCL-22 cells [1],effectively blocked the recurrence
same,relapse on […] Nilotinib in combination with SIRT1 inhibitor,KCL-22 cells [1],blocked relapse
same,relapse on 1 μM Dasatinib in combination with tenovin-6,KCL-22 cells [1]; 1 μM tenovin-6,delayed the relapse
same,relapse on 1 μM Dasatinib in combination with tenovin-6,KCL-22 cells [1]; 5 μM tenovin-6,blocked relapse
same,relapse of KCL-22 cells on imatinib (STI-571) in combination with the inhibitor,KCL-22 cells [1],blocks relapse
same,toxicity,[5],No noticeable toxicity
same,P53 acetylation in CML CD34+ cells,CML CD34+ cells,enhanced P53 acetylation
same,apoptosis of primitive CML CD34+CD38- progenitors incl. quiescent fraction,CML CD34+ cells,increased apoptosis
same,apoptosis of AML CD34+ cells,AML CD34+ cells,induced apoptosis
same,water solubility,Solubility,water soluble
same,CML mouse survival,"CML mice [6]; 50 mg/kg/day, 10 days from day 10 after transplantation",significantly extended CML mouse survival
same,"CML mouse survival, combination",CML mice [6]; tenovin-6 with imatinib,longest survivors
